#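 In this assay, cells in 96-well plates receive the compound at five concentrations for 48 hours. Endpoints are linearly interpolated between the surrounding concentrations. Abbreviation: GI50, concentration required for 50% inhibition of growth.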 The source made the active and inactive calls. Rule as the data show it: active = GI50 up to about 1.1 µM and inactive = higher. Square brackets hold non-standard residues; d marks the D form. Peptide text beside a SMILES is read from it. 2Nal = N[CH](Cc1ccc2ccccc2c1)C(=O)O
# Key:
# Assay in all cases: inhibition of tumour cell growth, NCI panel, 48 h
# A549 = test system: A549
# CCRF-CEM = test system: CCRF-CEM
# COLO 205 = test system: COLO 205
# HCT-15 = test system: HCT-15
# HL-60 = test system: HL-60
# HOP-62 = test system: HOP-62
# Hs-578T = test system: Hs-578T
# MDA-N = test system: MDA-N
# NCI-H226 = test system: NCI-H226
# NCI-H23 = test system: NCI-H23
# OVCAR-3 = test system: OVCAR-3
# SF-268 = test system: SF-268
# SF-539 = test system: SF-539
# SK-MEL-2 = test system: SK-MEL-2
# SN12C = test system: SN12C
# T47D = test system: T47D
# TK-10 = test system: TK-10
# UACC-62 = test system: UACC-62
# UO-31 = test system: UO-31
# Malme-3M = test system: Malme-3M
Compound,GI50 (A549),GI50 (CCRF-CEM),GI50 (COLO 205),GI50 (HCT-15),GI50 (HL-60),GI50 (HOP-62),GI50 (Hs-578T),GI50 (MDA-N),GI50 (NCI-H226),GI50 (NCI-H23),GI50 (OVCAR-3),GI50 (SF-268),GI50 (SF-539),GI50 (SK-MEL-2),GI50 (SN12C),GI50 (T47D),GI50 (TK-10),GI50 (UACC-62),GI50 (UO-31),GI50 (Malme-3M)
O=c1c2cc(I)ccc2nc(S)n1Cc1ccccc1,15.9 µM (inactive),5.69 µM (inactive),> 100 µM (inactive),32.1 µM,6.84 µM (inactive),13.3 µM (inactive),16 µM (inactive),9.2 µM (inactive),15.5 µM (inactive),7.59 µM (inactive),6.65 µM (inactive),11 µM (inactive),15.5 µM (inactive),14.6 µM (inactive),10.6 µM (inactive),> 100 µM (inactive),16.8 µM (inactive),19.6 µM (inactive),0.543 µM (active),
NCCNc1ccc(NCCN)c2c1C(=O)c1c(O)ccc(O)c1C2=O,0.00392 µM (active),0.00791 µM (active),1.08 µM (active),0.161 µM,0.0407 µM (active),,0.148 µM (active),1.13 µM (inactive),0.0018 µM (active),0.00728 µM (active),0.486 µM (active),0.00721 µM (active),0.0219 µM (active),0.44 µM (active),0.00483 µM (active),0.229 µM (active),0.428 µM (active),0.0108 µM (active),0.0391 µM (active),0.0671 µM (active)
O=[N+]([O-])c1ccc(NC(=S)N/N=C(\c2ccccc2)c2ccccn2)cc1,1.82 µM (inactive),< 0.0184 µM (active),0.312 µM (active),0.119 µM,< 0.0129 µM (active),0.242 µM (active),3.3 µM (inactive),1.6 µM (inactive),1.47 µM (inactive),2.18 µM (inactive),,0.0491 µM (active),1.74 µM (inactive),1.76 µM (inactive),1.48 µM (inactive),1.45 µM (inactive),1.24 µM (inactive),1.24 µM (inactive),1.46 µM (inactive),1.65 µM (inactive)
Cc1cc(S(=O)(=O)/N=C(\NN)NCC(=O)NN)c(S)cc1Cl,> 10 µM (inactive),> 10 µM (inactive),> 10 µM (inactive),> 10 µM,> 10 µM (inactive),> 10 µM (inactive),> 10 µM (inactive),> 10 µM (inactive),> 10 µM (inactive),> 10 µM (inactive),> 10 µM (inactive),> 10 µM (inactive),> 10 µM (inactive),> 10 µM (inactive),> 10 µM (inactive),> 10 µM (inactive),> 10 µM (inactive),> 10 µM (inactive),,> 10 µM (inactive)
CC(=O)OCC1OC(NC(=S)CCSc2nc3ccccc3c(=O)n2-c2ccccc2)C(OC(C)=O)C(OC(C)=O)C1OC(C)=O (configuration not stated),> 100 µM (inactive),27.2 µM (inactive),40.1 µM (inactive),53.7 µM,29.2 µM (inactive),28.3 µM (inactive),24.8 µM (inactive),44.4 µM (inactive),50.5 µM (inactive),68.1 µM (inactive),40.4 µM (inactive),> 100 µM (inactive),1.64 µM (inactive),22.1 µM (inactive),68.2 µM (inactive),30.5 µM (inactive),,28.4 µM (inactive),42 µM (inactive),> 100 µM (inactive)
Cc1ccc(S(=O)(=O)N2CCc3cc(O)c([N+](=O)[O-])cc32)cc1,> 100 µM (inactive),> 100 µM (inactive),> 100 µM (inactive),> 100 µM,> 100 µM (inactive),> 100 µM (inactive),> 100 µM (inactive),> 100 µM (inactive),> 100 µM (inactive),> 100 µM (inactive),,> 100 µM (inactive),> 100 µM (inactive),> 100 µM (inactive),> 100 µM (inactive),> 100 µM (inactive),> 100 µM (inactive),> 100 µM (inactive),> 100 µM (inactive),> 100 µM (inactive)
CC1=NN=C(N)N/C1=C/C(Sc1ccc(Cl)cc1)c1cccs1 (configuration not stated),10.3 µM (inactive),3.52 µM (inactive),22.1 µM (inactive),6.12 µM,4.07 µM (inactive),12.5 µM (inactive),17 µM (inactive),16.1 µM (inactive),17 µM (inactive),13.9 µM (inactive),,10.6 µM (inactive),,13.4 µM (inactive),26.8 µM (inactive),22 µM (inactive),36.2 µM (inactive),> 10 µM (inactive),4.45 µM (inactive),13.1 µM (inactive)
COc1cc(C2SC(=N)Nc3c2c(C)nn3C(=O)c2ccc(Cl)cc2)cc(OC)c1OC (configuration not stated),> 10 µM (inactive),> 10 µM (inactive),> 10 µM (inactive),> 10 µM,> 10 µM (inactive),> 10 µM (inactive),> 10 µM (inactive),> 10 µM (inactive),> 10 µM (inactive),> 10 µM (inactive),> 10 µM (inactive),> 10 µM (inactive),> 10 µM (inactive),> 10 µM (inactive),> 10 µM (inactive),> 10 µM (inactive),> 10 µM (inactive),> 10 µM (inactive),,> 10 µM (inactive)
COc1cc(/C=N/NC(=O)c2c(Cl)c(Cl)c(Cl)c(Cl)c2-c2nc3cc(C(=O)c4ccccc4)ccc3[nH]2)ccc1O,42.1 µM (inactive),23 µM (inactive),24.8 µM (inactive),15.6 µM,19.2 µM (inactive),38.5 µM (inactive),60 µM (inactive),16.1 µM (inactive),34.2 µM (inactive),28.4 µM (inactive),40 µM (inactive),36.9 µM (inactive),24.9 µM (inactive),39.3 µM (inactive),36.5 µM (inactive),22.6 µM (inactive),45.5 µM (inactive),,45.6 µM (inactive),54.8 µM (inactive)
C[C@H]1C[C@H]2[C@@H]3CCC4=CC(=O)C=C[C@]4(C)C3=CC[C@]2(C)[C@@]1(O)C(=O)CO,> 100 µM (inactive),66.8 µM (inactive),> 100 µM (inactive),> 100 µM,42 µM (inactive),> 100 µM (inactive),> 100 µM (inactive),> 100 µM (inactive),> 100 µM (inactive),95.1 µM (inactive),,> 100 µM (inactive),,> 100 µM (inactive),> 100 µM (inactive),69.8 µM (inactive),> 100 µM (inactive),> 100 µM (inactive),> 100 µM (inactive),> 100 µM (inactive)
N#CC(c1ccccc1)N(CCOCCOCCN(C(=O)c1ccccc1)C(C#N)c1ccccc1)C(=O)c1ccccc1 (configuration not stated),98.9 µM (inactive),58.5 µM (inactive),> 100 µM (inactive),> 100 µM,36.2 µM (inactive),,> 100 µM (inactive),> 100 µM (inactive),> 100 µM (inactive),84.7 µM (inactive),66.8 µM (inactive),> 100 µM (inactive),> 100 µM (inactive),85.3 µM (inactive),93.3 µM (inactive),7.08 µM (inactive),78.2 µM (inactive),53.6 µM (inactive),37.1 µM (inactive),93.5 µM (inactive)
CCc1c(Cc2cc(C)cc(C)c2)n2c(nc1=O)SCC2CBr (configuration not stated),> 50 µM (inactive),12.6 µM (inactive),> 50 µM (inactive),> 50 µM,> 50 µM (inactive),,> 50 µM (inactive),> 50 µM (inactive),> 50 µM (inactive),> 50 µM (inactive),,> 50 µM (inactive),> 50 µM (inactive),44.4 µM (inactive),> 50 µM (inactive),22.6 µM (inactive),34 µM (inactive),> 50 µM (inactive),> 50 µM (inactive),12.9 µM (inactive)
O=c1c(C(c2cccc(C(c3c(O)oc4ccccc4c3=O)c3c(O)oc4ccccc4c3=O)c2)c2c(O)oc3ccccc3c2=O)c(O)oc2ccccc12,60.3 µM (inactive),32.4 µM (inactive),86.3 µM (inactive),63.8 µM,21.7 µM (inactive),30.3 µM (inactive),25.5 µM (inactive),66.4 µM (inactive),44.7 µM (inactive),22.8 µM (inactive),35.3 µM (inactive),28.4 µM (inactive),19.8 µM (inactive),> 100 µM (inactive),22.1 µM (inactive),24.3 µM (inactive),> 100 µM (inactive),29 µM (inactive),,
CC(C)C(NC(=O)C(CCCCN)NC(=O)C(Cc1c[nH]c2ccccc12)NC(=O)C(Cc1ccc(O)cc1)NC(=O)C(CS)NC(=O)C(N)Cc1ccc2ccccc2c1)C(=O)NC(CS)C(=O)NC(C(N)=O)C(C)O (configuration not stated) (H-[2Nal]CYWKVCT-NH2; configuration not given here),> 12.5 µM (inactive),> 12.5 µM (inactive),> 12.5 µM (inactive),> 12.5 µM,> 12.5 µM (inactive),> 12.5 µM (inactive),> 12.5 µM (inactive),> 12.5 µM (inactive),> 12.5 µM (inactive),> 12.5 µM (inactive),> 12.5 µM (inactive),> 12.5 µM (inactive),> 12.5 µM (inactive),> 12.5 µM (inactive),> 12.5 µM (inactive),> 12.5 µM (inactive),,> 12.5 µM (inactive),> 12.5 µM (inactive),> 12.5 µM (inactive)

# Source: ChEMBL document CHEMBL1201862, “PubChem BioAssay data set” (2004)
